# Data reported in PubChem BioAssay AID330 (DTP/NCI, 2004).
# Toxic doses and inconclusive results are not listed.
# Test system: P388 leukemia ip, CD2F1 mice, survival T/C
# Test: NCI In Vivo Anticancer Drug Screen. Data for tumor model P388 Leukemia (intraperitoneal) in CD2F1 (CDF1) mice
# Conditions: endpoint: median survival time, higher = longer survival
# Outline: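 Mice carrying the transplanted tumor received test compound or vehicle. Survival was recorded in each group, and the value is the treated-group measurement divided by that of the vehicle-treated control group.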
# [1] = dose: 60.0 mg/kg/injection, schedule: Q01DX005 (ip), vehicle: saline with Tween-80
# [2] = dose: 120.0 mg/kg/injection, schedule: Q01DX005 (ip), vehicle: saline with Tween-80
# [3] = dose: 240.0 mg/kg/injection, schedule: Q01DX005 (ip), vehicle: saline with Tween-80
# [4] = dose: 50.0 mg/kg/injection, schedule: Q01DX005 (ip), vehicle: saline with Tween-80
# [5] = dose: 100.0 mg/kg/injection, schedule: Q01DX005 (ip), vehicle: saline with Tween-80
# [6] = dose: 200.0 mg/kg/injection, schedule: Q01DX005 (ip), vehicle: saline with Tween-80
# [7] = dose: 50.0 mg/kg/injection, schedule: Q01DX009 (ip), vehicle: saline with Tween-80
# [8] = dose: 100.0 mg/kg/injection, schedule: Q01DX009 (ip), vehicle: saline with Tween-80
# [9] = dose: 100.0 mg/kg/injection, schedule: Q04DX002 (ip), vehicle: saline with Tween-80
# [10] = dose: 200.0 mg/kg/injection, schedule: Q04DX002 (ip), vehicle: saline with Tween-80
# [11] = dose: 400.0 mg/kg/injection, schedule: Q04DX002 (ip), vehicle: saline with Tween-80
structure (smiles),measurement,setting,value
C=CC[P+](CC[P+](CC=C)(c1ccccc1)c1ccccc1)(c1ccccc1)c1ccccc1,T/C,"dose: 6.25 mg/kg/injection, schedule: Q04DX002 (ip), vehicle: saline",102 % of control
same,T/C,"dose: 12.5 mg/kg/injection, schedule: Q04DX002 (ip), vehicle: saline",96 % of control
O=C(CCCl)Nc1ccc(CCC(=O)c2ccccc2NC(=O)CCCl)cc1,T/C,[1],100 % of control
same,T/C,[2],90 % of control
same,T/C,[3],92 % of control
O=C(/N=C1\N=Nc2nc(CC(=O)c3cccc4ccccc34)c(O)n21)Nc1ccc(Cl)cc1,T/C,[4],96 % of control
same,T/C,[5],103 % of control
same,T/C,[6],104 % of control
Cc1cc(Nc2ccc(N(C)C)cc2)c2cc(N(C)C)ccc2n1,T/C,[7],96 % of control
same,T/C,[8],107 % of control
C=C(Cl)C(O)CNCCCC (centres undefined),T/C,[4],110 % of control
same,T/C,[5],110 % of control
Cc1cc2cc3c(c(C(=O)O)c2o1)C(=O)c1ccc2ccccc2c1C3,T/C,[1],97 % of control
same,T/C,[2],101 % of control
same,T/C,[3],94 % of control
CCC1C(OC)=CC(CC)(C(=O)OC)C=C1OC (centres undefined),T/C,[4],100 % of control
same,T/C,[5],107 % of control
same,T/C,[6],107 % of control
CCOC(=O)c1ccc(OC)c2[nH]c3c(c(=O)c12)C(=O)c1[nH]c2c(OC)ccc(C(=O)OCC)c2c(=O)c1C3=O,T/C,"dose: 100.0 mg/kg/injection, schedule: Q04DX003 (ip), vehicle: Klucel (hydroxypropylcellulose) (HPC)",97 % of control
same,T/C,"dose: 200.0 mg/kg/injection, schedule: Q04DX003 (ip), vehicle: Klucel (hydroxypropylcellulose) (HPC)",103 % of control
same,T/C,"dose: 400.0 mg/kg/injection, schedule: Q04DX003 (ip), vehicle: Klucel (hydroxypropylcellulose) (HPC)",100 % of control
Nc1cccc(-n2ccnc2)c1,T/C,[9],100 % of control
same,T/C,[10],93 % of control
same,T/C,[11],90 % of control
CC(=NCCCCN=C(C)c1cc(C)cc(Br)c1O)c1cc(C)cc(Br)c1O,T/C,"dose: 25.0 mg/kg/injection, schedule: Q01DX005 (ip), vehicle: Klucel (hydroxypropylcellulose) (HPC)",100 % of control
same,T/C,"dose: 50.0 mg/kg/injection, schedule: Q01DX005 (ip), vehicle: Klucel (hydroxypropylcellulose) (HPC)",96 % of control
same,T/C,"dose: 100.0 mg/kg/injection, schedule: Q01DX005 (ip), vehicle: Klucel (hydroxypropylcellulose) (HPC)",95 % of control
same,T/C,"dose: 200.0 mg/kg/injection, schedule: Q01DX005 (ip), vehicle: Klucel (hydroxypropylcellulose) (HPC)",98 % of control
CC(=O)OC1C[C@@](C)(O)[C@@]23O[C@@H]2[C@@H]2O[C@]2(C)C3C2OC(=O)C(C)[C@H]12 (some centres undefined),T/C,"dose: 937.5 micrograms/kg/injection, schedule: Q01DX005 (ip), vehicle: Klucel (hydroxypropylcellulose) (HPC)",98 % of control
same,T/C,"dose: 1875.0 micrograms/kg/injection, schedule: Q01DX005 (ip), vehicle: Klucel (hydroxypropylcellulose) (HPC)",100 % of control
same,T/C,"dose: 3750.0 micrograms/kg/injection, schedule: Q01DX005 (ip), vehicle: Klucel (hydroxypropylcellulose) (HPC)",100 % of control
same,T/C,"dose: 7500.0 micrograms/kg/injection, schedule: Q01DX005 (ip), vehicle: Klucel (hydroxypropylcellulose) (HPC)",97 % of control
CC(C)C(=O)CCC(=O)O,T/C,"dose: 50.0 mg/kg/injection, schedule: Q01DX005 (ip), vehicle: saline",106 % of control
same,T/C,"dose: 100.0 mg/kg/injection, schedule: Q01DX005 (ip), vehicle: saline",97 % of control
same,T/C,"dose: 200.0 mg/kg/injection, schedule: Q01DX005 (ip), vehicle: saline",98 % of control
CCOC1=C(N2CC2)C(=O)C(OCC)=C(N2CC2)C1=O,T/C,"dose: 1.25 mg/kg/injection, schedule: Q01DX009 (ip), vehicle: saline",171 % of control
same,T/C,"dose: 2.5 mg/kg/injection, schedule: Q01DX009 (ip), vehicle: saline",242 % of control
CCOP(=O)(Nc1ccc(OC)cc1)OCC,T/C,"dose: 50.0 mg/kg/injection, schedule: Q01DX009 (ip), vehicle: saline",103 % of control
same,T/C,"dose: 100.0 mg/kg/injection, schedule: Q01DX009 (ip), vehicle: saline",108 % of control
same,T/C,"dose: 200.0 mg/kg/injection, schedule: Q01DX009 (ip), vehicle: saline",111 % of control
CCB(CC)OC1OC(C2COB(CC)O2)C2OB(CC)OC12 (centres undefined),T/C,[4],103 % of control
same,T/C,[5],95 % of control
same,T/C,[6],101 % of control
CCCCCCCCCCCCCCCCS(=O)(=O)CCO,T/C,[7],95 % of control
same,T/C,[8],90 % of control
same,T/C,"dose: 200.0 mg/kg/injection, schedule: Q01DX009 (ip), vehicle: saline with Tween-80",86 % of control
C=CCNC(=S)NC(c1ccc(OC)cc1)C(CC)c1ccc(OC)cc1 (centres undefined),T/C,[9],100 % of control
same,T/C,[10],101 % of control
same,T/C,[11],106 % of control
